Laboratory results from patent publication US9145392B2, “Imidazole amines as modulators of kinase activity” (Merck Patent GmbH, priority 2011, dated 2015).
pIC50: −log10 of the molar value.

Target: P70S6K (T412E mutant) (Homo sapiens (Human), UniProt P23443, T412E)
Test: P70S6K enzyme assay
Format: biochemical
Conditions: read-out: IC50 p70S6K
Experimental: P70S6K inhibitor compounds are diluted and plated in 96 well plates. […] The reaction is incubated for 90 min at 25° C., before the addition of 10 mM EDTA to stop the reaction. The proportion of substrate and product (phosphorylated) peptide is analysed on a Caliper Life Sciences Lab Chip 3000, using a pressure of −1.4 psi, and upstream and downstream voltages of −3000 and −700 respectively. Product peaks are resolved before substrate peaks on the resulting chromatograms.

Sequence of P70S6K (T412E mutant) (P23443 whole entry T412E): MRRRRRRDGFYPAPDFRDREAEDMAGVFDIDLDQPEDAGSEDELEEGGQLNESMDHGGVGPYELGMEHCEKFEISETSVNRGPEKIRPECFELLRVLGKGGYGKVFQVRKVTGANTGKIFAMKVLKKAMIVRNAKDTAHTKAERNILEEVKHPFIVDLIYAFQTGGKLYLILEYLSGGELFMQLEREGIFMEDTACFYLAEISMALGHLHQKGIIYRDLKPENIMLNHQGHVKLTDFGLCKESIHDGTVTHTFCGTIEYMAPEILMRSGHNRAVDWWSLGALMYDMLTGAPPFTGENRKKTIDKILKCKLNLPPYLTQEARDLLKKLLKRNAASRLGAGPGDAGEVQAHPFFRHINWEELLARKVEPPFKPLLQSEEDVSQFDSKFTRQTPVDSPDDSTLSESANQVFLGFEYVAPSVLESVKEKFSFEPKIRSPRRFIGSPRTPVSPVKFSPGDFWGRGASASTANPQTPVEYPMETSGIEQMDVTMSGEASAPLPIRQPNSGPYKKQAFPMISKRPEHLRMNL

## Cn1c(-c2ccc(F)c(C(F)(F)F)c2)cnc1C1CCN(c2ncnc(N)c2Br)CC1 [Compound 2, 5-Bromo-6-{4-[5-(4-fluoro-3-trifluoromethyl-phenyl)-1-methyl-1H-imidazol-2-yl]-piperidin-1-yl}-pyrimidin-4-ylamine]
  pIC50: 7.24

## FC(F)(F)c1cccc(-c2c[nH]c(C3CCN(c4ccncc4Br)CC3)n2)c1 [Compound 5, 3-bromo-4-(4-{4-[3-(trifluoromethyl)phenyl]-1H-imidazol-2-yl}piperidin-1-yl)pyridine]
  pIC50: 6.50

## Cn1cc(-c2ccc(F)c(C(F)(F)F)c2)nc1C1CCN(c2cc(N)ncn2)CC1 [Compound 12, 6-{4-[4-(4-Fluoro-3-trifluoromethyl-phenyl)-1-methyl-1H-imidazol-2-yl]-piperidin-1-yl}-pyrimidin-4-ylamine]
  pIC50: 7.06

## Cn1cc(-c2ccc(F)c(C(F)(F)F)c2)nc1C1CCN(c2ncnc(N)c2-c2ccc(C(F)(F)F)cc2)CC1 [Compound 16, 6-{4-[4-(4-Fluoro-3-trifluoromethyl-phenyl)-1-methyl-1H-imidazol-2-yl]-piperidin-1-yl}-5-(4-trifluoromethyl-phenyl)-pyrimidin-4-ylamine]
  pIC50: 7.68

## Cn1cc(-c2ccc(F)c(C(F)(F)F)c2)nc1C1CCN(c2ncnc(N)c2-c2ccccc2C#N)CC1 [Compound 18, 2-(4-Amino-6-{4-[4-(4-fluoro-3-trifluoromethyl-phenyl)-1-methyl-1H-imidazol-2-yl]-piperidin-1-yl}-pyrimidin-5-yl)-benzonitrile]
  pIC50: 6.60

## Cn1cc(-c2ccc(F)c(C(F)(F)F)c2)nc1C1CCN(c2ncnc(N)c2-c2ccccc2)CC1 [Compound 21, 6-{4-[4-(4-Fluoro-3-trifluoromethyl-phenyl)-1-methyl-1H-imidazol-2-yl]-piperidin-1-yl}-5-phenyl-pyrimidin-4-ylamine]
  pIC50: 8.43

## Cn1cc(-c2ccc(F)c(C(F)(F)F)c2)nc1C1CCN(c2ncnc(N)c2-c2cccc(F)c2)CC1 [Compound 22, 5-(3-Fluoro-phenyl)-6-{4-[4-(4-fluoro-3-trifluoromethyl-phenyl)-1-methyl-1H-imidazol-2-yl]-piperidin-1-yl}-pyrimidin-4-ylamine]
  pIC50: 8.80

## Cn1cc(-c2ccc(F)c(C(F)(F)F)c2)nc1C1CCN(c2ncnc(N)c2-c2ccccc2F)CC1 [Compound 23, 5-(2-Fluorophenyl)-6-{4-[4-(4-fluoro-3-trifluoromethyl-phenyl)-1-methyl-1H-imidazol-2-yl]-piperidin-1-yl}-pyrimidin-4-ylamine]
  pIC50: 8.52

## Cn1cc(-c2ccc(F)c(C(F)(F)F)c2)nc1C1CCN(c2ncnc(N)c2-c2ccccc2Cl)CC1 [Compound 24, 5-(2-Chlorophenyl)-6-{4-[4-(4-fluoro-3-trifluoromethyl-phenyl)-1-methyl-1H-imidazol-2-yl]-piperidin-1-yl}-pyrimidin-4-ylamine]
  pIC50: 8.28

## Cn1cc(-c2ccc(F)c(C(F)(F)F)c2)nc1C1CCN(c2ncnc(N)c2-c2ccc(N3CCOCC3)nc2)CC1 [Compound 25, 6-{4-[4-(4-Fluoro-3-trifluoromethyl-phenyl)-1-methyl-1H-imidazol-2-yl]-piperidin-1-yl}-5-(6-morpholin-4-yl-pyridin-3-yl)-pyrimidin-4-ylamine]
  pIC50: 6.72

## Cn1cc(-c2ccc(F)c(C(F)(F)F)c2)nc1C1CCN(c2ncnc(N)c2-c2ccc(N3CCNCC3)nc2)CC1 [Compound 26, 6-{4-[4-(4-Fluoro-3-trifluoromethyl-phenyl)-1-methyl-1H-imidazol-2-yl]-piperidin-1-yl}-5-(6-piperazin-1-yl-pyridin-3-yl)-pyrimidin-4-ylamine]
  pIC50: 6.00

## Cn1cc(-c2ccc(F)c(C(F)(F)F)c2)nc1C1CCN(c2ncnc(N)c2-c2ccc(F)nc2)CC1 [Compound 27, 5-(6-Fluoro-pyridin-3-yl)-6-{4-[4-(4-fluoro-3-trifluoromethyl-phenyl)-1-methyl-1H-imidazol-2-yl]-piperidin-1-yl}-pyrimidin-4-ylamine]
  pIC50: 8.52

## Cn1cc(-c2ccc(F)c(C(F)(F)F)c2)nc1C1CCN(c2ncnc(N)c2-c2cnc(N)nc2)CC1 [Compound 28, 6′-{4-[4-(4-Fluoro-3-trifluoromethyl-phenyl)-1-methyl-1H-imidazol-2-yl]-piperidin-1-yl}-[5,5]bipyrimidinyl-2,4′-diamine]
  pIC50: 8.36

## COc1cccc(-c2c(N)ncnc2N2CCC(c3nc(-c4ccc(F)c(C(F)(F)F)c4)cn3C)CC2)c1 [Compound 29, 6-{4-[4-(4-Fluoro-3-trifluoromethyl-phenyl)-1-methyl-1H-imidazol-2-yl]-piperidin-1-yl}-5-(3-methoxyphenyl)-pyrimidin-4-ylamine]
  pIC50: 8.01

## Cn1cc(-c2ccc(F)c(C(F)(F)F)c2)nc1C1CCN(c2ncnc(N)c2-c2ccc(F)c(F)c2)CC1 [Compound 30, 5-(3,4-Difluoro-phenyl)-6-{4-[4-(4-fluoro-3-trifluoromethyl-phenyl)-1-methyl-1H-imidazol-2-yl]-piperidin-1-yl}-pyrimidin-4-ylamine]
  pIC50: 8.20

## CN(C)c1ncc(-c2c(N)ncnc2N2CCC(c3nc(-c4ccc(F)c(C(F)(F)F)c4)cn3C)CC2)cn1 [Compound 31, 6′-{4-[4-(4-Fluoro-3-trifluoromethyl-phenyl)-1-methyl-1H-imidazol-2-yl]-piperidin-1-yl}-N2,N2-dimethyl-[5,5]bipyrimidinyl-2,4′-diamine]
  pIC50: 8.12

## Cn1cc(-c2ccc(F)c(C(F)(F)F)c2)nc1C1CCN(c2ncnc(N)c2-c2ccc(CN)cc2)CC1 [Compound 32, 5-(4-Aminomethyl-phenyl)-6-{4-[4-(4-fluoro-3-trifluoromethyl-phenyl)-1-methyl-1H-imidazol-2-yl]-piperidin-1-yl}-pyrimidin-4-ylamine]
  pIC50: 8.38

## COc1ccc(-c2c(N)ncnc2N2CCC(c3nc(-c4cccc(C(F)(F)F)c4)c[nH]3)CC2)cc1 [Compound 33, 5-(4-Methoxy-phenyl)-6-{4-[4-(3-trifluoromethyl-phenyl)-1H-imidazol-2-yl]-piperidin-1-yl}-pyrimidin-4-ylamine]
  pIC50: 8.57

## COc1ccc(-c2cncnc2N2CCC(c3nc(-c4cccc(C(F)(F)F)c4)c[nH]3)CC2)cc1 [Compound 34, 5-(4-Methoxy-phenyl)-4-{4-[4-(3-trifluoromethyl-phenyl)-1H-imidazol-2-yl]-piperidin-1-yl}-pyrimidine]
  pIC50: 7.92

## COc1ccc(-c2cnccc2N2CCC(c3nc(-c4cccc(C(F)(F)F)c4)c[nH]3)CC2)cc1 [Compound 35, 3-(4-methoxyphenyl)-4-(4-{4-[3-(trifluoromethyl)phenyl]-1H-imidazol-2-yl}piperidin-1-yl)pyridine]
  pIC50: 8.05

## Cn1cc(-c2ccc(F)c(C(F)(F)F)c2)nc1C1CCN(c2ncncc2-c2ccc(F)cc2)CC1 [Compound 42, 5-(4-Fluoro-phenyl)-4-{4-[4-(4-fluoro-3-trifluoromethyl-phenyl)-1-methyl-1H-imidazol-2-yl]-piperidin-1-yl}-pyrimidine]
  pIC50: 8.27

## COC(=O)/C=C/c1c(N)ncnc1N1CCC(c2nc(-c3ccc(F)c(C(F)(F)F)c3)cn2C)CC1 [Compound 45, (E)-3-(4-Amino-6-{4-[4-(4-fluoro-3-trifluoromethyl-phenyl)-1-methyl-1H-imidazol-2-yl]-piperidin-1-yl}-pyrimidin-5-yl)-acrylic acid methyl ester]
  pIC50: 8.46

## Cn1cc(-c2ccc(F)c(C(F)(F)F)c2)nc1C1CCN(c2ncnc(N)c2/C=C/C(N)=O)CC1 [Compound 46, (E)-3-(4-Amino-6-{4-[4-(4-fluoro-3-trifluoromethyl-phenyl)-1-methyl-1H-imidazol-2-yl]-piperidin-1-yl}-pyrimidin-5-yl)-acrylamide]
  pIC50: 7.85

## COc1cncc(-c2c(N)ncnc2N2CCC(c3nc(-c4ccc(F)c(C(F)(F)F)c4)cn3C)CC2)c1 [Compound 47, 6-{4-[4-(4-Fluoro-3-trifluoromethyl-phenyl)-1-methyl-1H-imidazol-2-yl]-piperidin-1-yl}-5-(5-methoxy-pyridin-3-yl)-pyrimidin-4-ylamine]
  pIC50: 8.37

## Cn1cc(-c2ccc(F)c(C(F)(F)F)c2)nc1C1CCN(c2ncnc(N)c2-c2ccc(Cl)nc2)CC1 [Compound 50, 5-(6-Chloro-pyridin-3-yl)-6-{4-[4-(4-fluoro-3-trifluoromethyl-phenyl)-1-methyl-1H-imidazol-2-yl]-piperidin-1-yl}-pyrimidin-4-ylamine]
  pIC50: 8.35

## Cn1cc(-c2ccc(F)c(C(F)(F)F)c2)nc1C1CCN(c2ncnc(N)c2-c2cccc(Cl)c2)CC1 [Compound 51, 5-(3-Chloro-phenyl)-6-{4-[4-(4-fluoro-3-trifluoromethyl-phenyl)-1-methyl-1H-imidazol-2-yl]-piperidin-1-yl}-pyrimidin-4-ylamine]
  pIC50: 7.66

## Cn1cc(-c2ccc(F)c(C(F)(F)F)c2)nc1C1CCN(c2ncnc(N)c2-c2ccc(C#N)c(F)c2)CC1 [Compound 52, 4-(4-Amino-6-{4-[4-(4-fluoro-3-trifluoromethyl-phenyl)-1-methyl-1H-imidazol-2-yl]-piperidin-1-yl}-pyrimidin-5-yl)-2-fluoro-benzonitrile]
  pIC50: 8.30

## CCc1c(N)ncnc1N1CCC(c2nc(-c3ccnc(C(F)(F)F)c3)cn2CCNC)CC1 [Compound 171, 5-ethyl-6-(4-(1-(2-(methylamino)ethyl)-4-(2-(trifluoromethyl)pyridin-4-yl)-1H-imidazol-2-yl)piperidin-1-yl)pyrimidin-4-amine]
  pIC50: 9.22

## CCOc1c(N)ncnc1N1CCC(c2nc(-c3ccc(F)c(Cl)c3)cn2CCN2CCCC2)CC1 [Compound 289]
  pIC50: 9.10
